Source: patent US20040072368A1, “Lipoprotein receptor” (priority 2002, published 2004)
Blank lines part the entries; values can stand above or below the compound they belong to.

Tests used:
[1] = target: T1, cell surface ATP synthase (Homo sapiens, UniProt P06576); experiment: Cell surface ADP generation assay (ATP hydrolysis), HPLC/TLC; format: cell-based; conditions: HepG2
T1 construct: endogenous in cells; host or cells: HepG2
Experimental: (§1) ^32Pi and ADP (panels A and B) or [α-32P] ATP (panels C, D, E and F) are added to the HepG2 cell medium as described in Experimental Procedures, and the cells are incubated for 10 min at 37° C. with 10 μg/ml apoA-I (panels B and D), 100 nM IF1 (panel E), or both IF1 […] and apoA-I at the same concentrations as above (panel F). Control experiments are performed with neither apo AI nor IF1 added into the cell medium (panel A and C). Supernatants are recovered and analysed by HPLCs.
(§2) Confluent HepG2 in 6-well plates are washed in DMEM, then incubated at 37° C. for 10 min in DMEM pH 6.6 with 0.1 μCi [α-32P] ATP for ADP generation assay, or with 0.1 μCi 32Pi and ADP (100 nM final) for ATP generation assay. Depending on the experiment, IF1 (100 nM final) or apoA-I (10 μg/ml final) are added in the reaction mixture. Supernatants are removed and analysed using two different systems: 1) by HPLC coupled to a radioactivity detector on a Whatman Partisphere 5 SAX column (Whatman International Ltd., UK) as described previously (13); calibration is done with radiolabelled nucleotides. 2) by thin layer chromatography in the solvent NaCl 2.4%/NH4OH/H2O/MeOH (12.5/15/27.5/50, v/v); radioactive spots are counted by liquid scintillation.

HepG2 cells [2] = experiment: TG-HDL2 internalisation assay; format: cell-based, human; conditions: for effect on internalisation of 125I-TG-HDL2: 75 μg/ml 125I-TG-HDL2, 10 min at 37° C., 10 μg/ml free-apoA-I, 100 nM ADP, 100 nM ATP, 0.2 U/ml apyrase, 100 nM EGF
Experimental: (§3) Panel 1, 2 and 3. TG-HDL2 and LDL internalization by HepG2 cells. Cells are incubated for 10 min at 37° C. with 75 μg/ml of ^125I-TG-HDL2 (panels 1 and 3), TG-HDL2 labelled with ^3H-cholesteryl ester (panel 1 “chol”) or ^1251-LDL (panel 2). Alternatively, 10 μg/ml free-apoA-I (A, G), 100 nM ADP (B, H), both free-apoA-I and ADP at the same concentrations as above (C), 100 nM ATP (D), 0.2 U/ml apyrase (E), 100 nM EGF (F), or increasing concentrations of 2MeS-ADP (▪) and ATPγS (□) (panel 3) are added to the incubation medium. Results are expressed as the percentage of stimulation related to the value of internalisation obtained without addition of any compound (corresponding to a value of 400 ng TG-HDL2/mg of cell protein). The same experiments are performed on IHH cells with similar results (data not shown).
HepG2 cells are incubated for 10 min at 37° C. in DMEM pH 6.6 with 75 μg/ml of ^125I-TGHDL 2 and in the presence of increasing concentrations of IF, without (panel A) or with (panel B) free-apoA-I (10 μg/ml). Results are expressed as the percentage of stimulation as referred to the value of internalisation obtained without addition of any compound (corresponding to a value of 400 ng TG-HDL2/mg of cell protein).
Cells are washed three times and pre-incubated for 30 min at 37° C. in serum free DMEM. ^125I triglyceride rich-HDL2 (75 μg/ml) are added on the cells and incubated at 37° C. for various time. Depending on the experiment, free apolipoprotein A-I (10 μg/ml) or other compounds, are added to the incubation medium. At each incubation time, cells are washed with cold DMEM and the release of radioactive ligands associated to the cell surface is performed at 4° C., for 90 min in DMEM. The radioactivity internalised into the cells and the protein content is determined as in the competition assays. Non-specific internalisation is analysed in the presence of an excess of 600 μg/ml of HDL3. Results are expressed as the percentage of stimulation related to the value of internalisation obtained without addition of any compound. The same method is used for the measurement of LDL internalisation.

HepG2 cells and IHH = experiment: Cholesterol efflux; format: cell-based, human; conditions: for influence on cholesterol efflux: range of 1 nM to 10 μM
rat liver = experiment: TG-HDL2 internalisation by perfused rat liver (in situ); format: in vivo
Experimental: The liver from male Whistar rats (7-8 weeks old) were perfused in situ during 45 minutes at 37° C. in Ringer medium (pH 6.8) with 35 μg/ml of 1251-TG-HDL2 with or without 1 μM IF1. Livers were then extensively washed at 4° C. and radioactivity counted. n=7 per group. Values represent means±SEM, with p<0.02 (unpaired t-test). Control fluorescence-assisted flow cytometry experiments have shown the presence of both the Band a-chain ATP synthase at the cell surface of isolated rat hepatocytes (not shown).

[3] = target: T2, β-subunit of ATP synthase (Homo sapiens, UniProt P06576); experiment: Flow cytometry detection of cell surface β-subunit of ATP synthase; format: cell-based; conditions: excess of free-apoA-I (100 nM), HepG2 cells
T2 construct: endogenous in cells; host or cells: HepG2 (ATCC)
Experimental: HepG2 and CHO cells were analyzed by fluorescence-assisted flow cytometry. Plots are shown for HepG2 (panel A) and CHO (panel C) where solid lines represent cells incubated with an anti b-subunit of ATP synthase mouse monoclonal IgG2a in absence (e) or presence (d) of 100 nM apoA-I, 250 μg/ml of FI-ATPase (c) or incubated with an isotypic control mouse IgG2a (a) and […] anti cytochrome oxidase subunit I mouse monoclonal IgG2a (b, dashed lines). In panel B and D, the histograms are expressed as the mean relative fluorescence of the curves a to e on HepG2 (B) or CHO cells (D).
For analysis of the cell surface EGF receptor, HepG2 cells are preincubated in medium with or without 20 nM EGF for 10 min at 37° C. For flow cytometry analysis, HepG2 and CHO cells are detached by incubation with Ca2+, Mg2+free PBS containing 2 mM EDTA, pH 7.4, fixed in 3% paraformaldehyde and pelleted in a microfuge. Cells are incubated at 20° C. for 1 h in PBS, pH 7.4 containing 1% BSA with either mouse monoclonal antibodies against the human β-subunit of ATP synthase, the human cytochrome oxidase subunit I, the human EGF receptor or against isotypic control IgG. […] The mean relative fluorescence after excitation at a wavelength of 488 nm is determined for each sample on a Coulter XL 4C flow cytometer and analysed with CELLQUEST software (Becton-Dickenson).

HepG2 cells [4] = experiment: Competitive inhibition of binding of 125I-labeled apoA-I to HepG2 cells; parameters: species or system human; conditions: 1 μg/ml 125I-apoA-I, no competitor, 2 h at 4° C.
Experimental: HepG2 cells (panel A) and submitochondrial particles (panel B) are incubated for 2 h at 4° C. in the presence of 1 μg/ml ^125I-labeled apoA-1 and 5 μg/ml ^125I-labeled HDL3 respectively, in the presence of increasing concentrations of either unlabeled apoA-I (◯, panel A), unlabeled HDL3 (●, panel B), anti β-subunit of ATP synthase mouse monoclonal IgG2a (□) or purified isotype mouse IgG2a (♦). The 100% specific binding corresponds to 25,5 ng apoA-I bound per mg of cell proteins (panel A) and 2050 ng HDL3 protein bound per mg of mitochondrial proteins (panel B). Fab fragments from anti-β-subunit of ATP synthase are also used as competitors and results are identical to anti β-subunit IgG2a (data not shown). The results are representative of three independent series of experiments.
The competition experiments are performed at 4° C. for 2 h as previously described (6). […] Cells are washed twice with ice-cold PBS (maximum washing time is 15 s), lysed with 500 μl of 0.1 N NaOH, and the NaOH digest is used for radioactivity measurement and protein determination. […] Filters are used for radioactivity measurements. […] Data are expressed as the percentage of the specific binding measured in the absence of competitor versus the log of competitor concentration (in nM).

[5] = target: T1, cell surface ATP synthase; experiment: Cell surface ATP generation assay (ATP synthesis), HPLC/TLC; format: cell-based; conditions: 10 μg/ml free-apoA-I, 10 min, HepG2
Experimental: as §1, §2

HepG2 cells [6] = experiment: LDL internalisation assay; format: cell-based, human; conditions: 10 μg/ml free-apoA-I or 100 nM ADP, 10 min at 37° C.
Experimental: as §3
Cells are washed three times and pre-incubated for 30 min at 37° C. in serum free DMEM. ^125I triglyceride rich-HDL2 (75 μg/ml) are added on the cells and incubated at 37° C. for various time. […] The radioactivity internalised into the cells and the protein content is determined as in the competition assays. Non-specific internalisation is analysed in the presence of an excess of 600 μg/ml of HDL3. Results are expressed as the percentage of stimulation related to the value of internalisation obtained without addition of any compound. […]

EGF receptor = EGF receptor internalisation by flow cytometry; format: cell-based, human; conditions: HepG2, 10 min pre-incubation, 10 μg/ml free-apoA-I or 100 nM ADP
Experimental: Panel 4. Internalisation of EGF receptor by HepG2 cells. Cells are pre-incubated for 10 min in serum-free medium with (J) or without (K) […] EGF, or with 10 μg/ml free-apoA-I (L), 100 nM ADP (M). The amount of EGF receptor is measured by Flow Cytometry using anti-EGF receptor antibody. As a control experiment for the efficacy of EGF receptor antibody, isotypic IgG are used (I). Results are expressed as the mean relative cell fluorescence and receptor internalisation is related to lower fluorescence.
For analysis of the cell surface EGF receptor, HepG2 cells are preincubated in medium with or without 20 nM EGF for 10 min at 37° C. For flow cytometry analysis, HepG2 and CHO cells are detached by incubation with Ca2+, Mg2+free PBS containing 2 mM EDTA, pH 7.4, fixed in 3% paraformaldehyde and pelleted in a microfuge. Cells are incubated at 20° C. for 1 h in PBS, pH 7.4 containing 1% BSA with either mouse monoclonal antibodies against the human β-subunit of ATP synthase, the human cytochrome oxidase subunit I, the human EGF receptor or against isotypic control IgG. Cells are washed in PBS/BSA 1% and incubated at 20° C. for 30 min with goat […] IgG conjugated to fluorescein isothiocyanate. After a final wash, cells are pelleted and resuspended in PBS/BSA 1% at a density of 1×10^6 cells/ml. The mean relative fluorescence after excitation at a wavelength of 488 nm is determined for each sample on a Coulter XL 4C flow cytometer and analysed with CELLQUEST software (Becton-Dickenson).

T1 sequence (P06576 48-529): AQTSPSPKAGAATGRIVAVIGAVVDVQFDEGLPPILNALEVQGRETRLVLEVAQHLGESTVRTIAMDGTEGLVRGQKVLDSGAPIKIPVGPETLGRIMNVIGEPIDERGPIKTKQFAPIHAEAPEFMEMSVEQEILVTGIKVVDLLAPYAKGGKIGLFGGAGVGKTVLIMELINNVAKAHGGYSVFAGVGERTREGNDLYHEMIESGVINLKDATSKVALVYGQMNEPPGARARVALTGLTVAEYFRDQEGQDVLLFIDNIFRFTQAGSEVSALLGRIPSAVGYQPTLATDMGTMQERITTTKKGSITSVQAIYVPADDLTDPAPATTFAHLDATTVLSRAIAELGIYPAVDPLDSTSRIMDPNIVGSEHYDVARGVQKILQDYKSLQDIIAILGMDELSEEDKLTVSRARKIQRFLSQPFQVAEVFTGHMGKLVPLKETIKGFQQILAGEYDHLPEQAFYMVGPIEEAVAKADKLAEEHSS
T1 sequence (P25705 44-553 partner): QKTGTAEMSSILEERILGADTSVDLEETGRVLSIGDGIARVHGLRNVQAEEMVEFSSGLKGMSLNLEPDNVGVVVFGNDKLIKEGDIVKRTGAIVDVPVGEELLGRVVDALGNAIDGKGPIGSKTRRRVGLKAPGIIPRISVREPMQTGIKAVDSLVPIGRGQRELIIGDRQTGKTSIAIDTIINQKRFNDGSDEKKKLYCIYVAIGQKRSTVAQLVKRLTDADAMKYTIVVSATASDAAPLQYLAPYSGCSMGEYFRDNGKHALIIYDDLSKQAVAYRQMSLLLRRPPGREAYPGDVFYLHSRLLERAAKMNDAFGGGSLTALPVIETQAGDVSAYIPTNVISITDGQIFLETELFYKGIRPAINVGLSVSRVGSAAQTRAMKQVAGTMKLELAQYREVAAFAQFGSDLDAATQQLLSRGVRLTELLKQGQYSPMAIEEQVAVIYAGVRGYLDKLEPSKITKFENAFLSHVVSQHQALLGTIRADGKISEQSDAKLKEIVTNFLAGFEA
T1 sequence (P36542 26-298 partner): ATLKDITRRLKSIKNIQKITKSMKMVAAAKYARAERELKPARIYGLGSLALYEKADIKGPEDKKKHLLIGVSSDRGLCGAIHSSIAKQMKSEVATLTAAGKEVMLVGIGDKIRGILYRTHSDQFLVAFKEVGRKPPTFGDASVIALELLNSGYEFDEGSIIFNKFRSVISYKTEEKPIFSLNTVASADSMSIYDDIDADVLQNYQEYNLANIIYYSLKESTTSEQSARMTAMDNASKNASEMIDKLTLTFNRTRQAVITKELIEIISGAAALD
T1 sequence (P30049 23-168 partner): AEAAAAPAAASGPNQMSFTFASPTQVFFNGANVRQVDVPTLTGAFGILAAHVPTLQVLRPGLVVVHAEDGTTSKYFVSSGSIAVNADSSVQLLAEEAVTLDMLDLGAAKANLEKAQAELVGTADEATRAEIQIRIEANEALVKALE
T1 sequence (P56381 2-51 partner limits assumed): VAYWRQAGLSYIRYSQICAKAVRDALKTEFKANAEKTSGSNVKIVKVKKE
T2 sequence (P06576 48-529): as the sequence (P06576 48-529) above
T2 sequence (P25705 44-553 partner): as the sequence (P25705 44-553 partner) above
T2 sequence (P36542 26-298 partner): as the sequence (P36542 26-298 partner) above
T2 sequence (P30049 23-168 partner): as the sequence (P30049 23-168 partner) above
T2 sequence (P56381 2-51 partner limits assumed): as the sequence (P56381 2-51 partner limits assumed) above

decrease of [α-32P]-ADP generated as compared to control ([1]; 100 nM IF1, 10 min at 37° C.): 48%
effect on the free-apoA-I stimulation of ATP hydrolysis ([1]; 100 nM IF1 plus 10 μg/ml apoA-I, 10 min at 37° C.): could inhibit the stimulatory effect
Compound: IF1: natural inhibitor protein of mitochondrial F1-ATPase, inhibits the hydrolytic activity of the ATP synthase
effect on stimulation of TG-HDL2 endocytosis by free-apoA-I (HepG2 cells [2]; higher concentrations of IF1, with free-apoA-I 10 μg/ml, DMEM pH 6.6): completely abolish
effect on TG-HDL2 internalisation (HDL endocytosis) (HepG2 cells [2]; increasing concentrations of IF1, without free-apoA-I, DMEM pH 6.6, 10 min at 37° C.): dramatic decrease
influence on cholesterol efflux (HepG2 cells and IHH): no influence
TG-HDL2 internalisation by perfused rat liver (rat liver; 1 μM IF1, 35 μg/ml 125I-TG-HDL2, 45 minutes at 37° C., means±SEM, n=7): 2.597 ± 1.026 μgTG-HDL2/g of liver
decrease of TG-HDL2 internalisation by the liver (rat liver; perfused rat liver, 45 min, 1 μM IF1): up to 45%

Compound: apyrase
effect on internalisation of 125I-TG-HDL2 (HepG2 cells [2]): completely abolishes

Compound: CSc1nc(N)c2ncn([C@@H]3O[C@H](COP(=O)(O)OP(=O)(O)O)[C@@H](O)[C@H]3O)c2n1 [2MeS-ADP]
effect on TG-HDL2 endocytosis (HepG2 cells [2]; 2MeS-ADP at 10 to 100 nM): stimulatory effect
effect on TG-HDL2 endocytosis (HepG2 cells [2]; 2MeS-ADP at higher concentrations (1 μM to 10 μM)): inhibition of endocytosis

reduction of immunoreactivity of the anti β-subunit antibody [3]: more than 3 fold
increase of [α32P]-ADP generated from [α-32P]-ATP ([1]; 10 μg/ml apoA-I, 10 min at 37° C.): up to 79%
Compound: free-apoA-I: major apoprotein of HDL, single polypeptide chain of 243 amino acid residues, isolated from HDL3 by ion-exchange chromatography
100% specific binding (HepG2 cells [4]): 25,5 ng apoA-I bound per mg of cell proteins
ATP synthesis from ADP plus 32Pi [5]: no synthesis of ATP is detected
radioactivity internalised into the cells (125I-labeled TG-HDL2) (HepG2 cells [2]; increasing free-apoA-I from 0.1 to 20 μg/ml, HepG2 or IHH cells, preliminary experiment): increased
stimulation of endocytosis of 125I-labeled LDL (HepG2 cells [6]): no stimulation
number of EGF-R at the cell surface (EGF receptor): neither free apoA-I (FIG. 6-4L) nor ADP (FIG. 6-4M) are able to reduce
stimulation of the cholesterol efflux (HepG2 cells and IHH; free-apoA-I): 2 to 2.5 fold

Compound: Nc1ncnc2c1ncn2[C@@H]1O[C@H](COP(=O)(O)OP(=O)(O)OP(=O)(O)O)[C@@H](O)[C@H]1O [ATP]
effect on internalisation of 125I-TG-HDL2 (HepG2 cells [2]): small stimulation

Compound: Nc1ncnc2c1ncn2[C@@H]1O[C@H](COP(=O)(O)OP(=O)(O)O)[C@@H](O)[C@H]1O [ADP, reference compound]
effect on internalisation of 125I-TG-HDL2 (HepG2 cells [2]): stimulates
stimulation of endocytosis of 125I-labeled LDL (HepG2 cells [6]): no stimulation
number of EGF-R at the cell surface (EGF receptor): neither free apoA-I (FIG. 6-4L) nor ADP (FIG. 6-4M) are able to reduce
influence on cholesterol efflux (HepG2 cells and IHH): no influence

Compound: Nc1ncnc2c1ncn2[C@@H]1O[C@H](COP(=O)(O)OP(=O)(O)OP(O)(O)=S)[C@@H](O)[C@H]1O [ATPγS]
stimulation of TG-HDL2 endocytosis (HepG2 cells [2]; ATPγS at 10 μM): 15%
effect on TG-HDL2 endocytosis (HepG2 cells [2]; ATPγS at low concentrations): weak effect

Compound: EGF: known to induce endocytosis of the EGF receptor (NSDSECPLSHDGYCLHDGVCMYIEALDKYACNCVVGYIGERCQYRDLKWWELR; Epidermal growth factor; UniProt P01133 971-1023, looked up)
effect on internalisation of 125I-TG-HDL2 (HepG2 cells [2]): does not stimulate
number of EGF-R at the cell surface (EGF receptor): strongly reduces
